This assay concerns NBD1/3D. In words: Aggregation analysis using differential static light scattering (DSLS), NBD1 thermal stability. It is filed as binding, Human. As to conditions: ΔTagg versus DMSO control; compound at 100 μM. An outline of the steps:
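Purified NBD1 at 0.2 mg/ml in S200 buffer (pH 7.6, 2 mM ATP, 5 mM MgCl2, 1% glycerol) was heated with compound at 1 °C/min to 70 °C. Tagg taken from the light-scattering curve inflection point; ΔTagg = compound Tagg minus mean DMSO control Tagg.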
For the compound `CC(O)(c1cccc(CCC(=O)O)c1)c1cnc(-c2cc(Oc3c(F)cc4[nH]ccc4c3P(C)(C)=O)ccc2F)[nH]1` (stereo not drawn) [Example 96, 3-(3-(1-(2-(5-((4-(Dimethylphosphoryl)-6-fluoro-1H-indol-5-yl)oxy)-2-fluorophenyl)-1H-imidazol-5-yl)-1-hydroxyethyl)phenyl)propanoic acid], the “DSLS NBD1/3D Human Stability delta-T (° C.) @ 100 (μM)” value (shortened to “DSLS NBD1/3D Human Stability delta-T”) was “B (B: 5-10° C.)”.

With `O=C(O)CCc1cc(F)cc(Cc2cnc(-c3cc(Oc4c(F)cc5[nH]ccc5c4CC(F)(F)F)ccc3F)[nH]2)c1` [Example 113, 3-(3-fluoro-5-((2-(2-fluoro-5-((6-fluoro-4-(2,2,2-trifluoroethyl)-1H-indol-5-yl)oxy)phenyl)-1H-imidazol-5-yl)methyl)phenyl)propanoic acid], the “DSLS NBD1/3D Human Stability delta-T” value is on record as “B (B: 5-10° C.)”.

In the case of `Cc1c(Oc2ccc(F)c(-c3ncc(C(C)c4cccc([C@H]5C[C@@H]5C(=O)O)c4F)[nH]3)c2)c(F)cc2[nH]ccc12` (single isomer, unassigned) [Example 139G, trans-2-(2-fluoro-3-(1-(2-(2-fluoro-5-((6-fluoro-4-methyl-1H-indol-5-yl)oxy)phenyl)-1H-imidazol-5-yl)ethyl)phenyl)cyclopropane-1-carboxylic acid], the “DSLS NBD1/3D Human Stability delta-T” value is “C (C: ≤5° C.)”.

With `CC(C#N)(c1cccc(CCC(=O)O)c1)c1cnc(-c2cc(Oc3c(F)c(F)c4[nH]ccc4c3C3CC3)ccc2F)[nH]1` (stereo not drawn) [Example 53, 3-(3-(1-cyano-1-(2-(5-((4-cyclopropyl-6,7-difluoro-1H-indol-5-yl)oxy)-2-fluorophenyl)-1H-imidazol-5-yl)ethyl)phenyl)propanoic acid], the “DSLS NBD1/3D Human Stability delta-T” value is “B (B: 5-10° C.)”.

On to `OCCCc1cccc(Cc2cnc(-c3cc(Oc4c(F)cc5[nH]ccc5c4F)ccc3F)[nH]2)c1F` [Example 268, 3-(3-((2-(5-((4,6-Difluoro-1H-indol-5-yl)oxy)-2-fluorophenyl)-1H-imidazol-5-yl)methyl)-2-fluorophenyl)propan-1-ol], for which the “DSLS NBD1/3D Human Stability delta-T” value is given as “C (C: ≤5° C.)”.

For the compound `Cc1c(Oc2ccc(F)c(-c3ncc(C(C)c4cccc([C@@H]5CC5C(=O)O)c4F)[nH]3)c2)c(F)cc2[nH]ccc12` (single isomer, unassigned) [Example 138B, cis-2-(2-fluoro-3-(1-(2-(2-fluoro-5-((6-fluoro-4-methyl-1H-indol-5-yl)oxy)phenyl)-1H-imidazol-5-yl)ethyl)phenyl)cyclopropane-1-carboxylic acid], the “DSLS NBD1/3D Human Stability delta-T” value was “C (C: ≤5° C.)”.

`O=C(O)CCc1cccc(Cc2cnc(-c3cccc(Oc4c(F)cc5[nH]ccc5c4-c4ccn[nH]4)c3)[nH]2)c1` [Example 271, 3-(3-((2-(3-((6-Fluoro-4-(1H-pyrazol-5-yl)-1H-indol-5-yl)oxy)phenyl)-1H-imidazol-4-yl)methyl)phenyl)propanoic acid]: the “DSLS NBD1/3D Human Stability delta-T” value is “B (B: 5-10° C.)”.

Turning to `[2H]C([2H])([2H])C(C#N)(c1cc(F)cc(CCC(=O)O)c1)c1c[nH]c(-c2cc(Oc3c(F)c(F)c4[nH]ccc4c3F)ccc2F)n1` (single isomer, unassigned) [Example 66, 3-(3-(1-cyano-1-(2-(2-fluoro-5-((4,6,7-trifluoro-1H-indol-5-yl)oxy)phenyl)-1H-imidazol-4-yl)ethyl-2,2,2-d3)-5-fluorophenyl)propanoic acid], the “DSLS NBD1/3D Human Stability delta-T” value was “B (B: 5-10° C.)”.

Take `COC(c1cccc(CCC(=O)O)c1)c1cnc(-c2cc(Oc3c(F)cc4[nH]ccc4c3C)ccc2F)[nH]1` (stereo not drawn) [Example 237, 3-(3-((2-(2-fluoro-5-((6-fluoro-4-methyl-1H-indol-5-yl)oxy)phenyl)-1H-imidazol-5-yl)(methoxy)methyl)phenyl) propanoic acid]: the “DSLS NBD1/3D Human Stability delta-T” value is “B (B: 5-10° C.)”.

With `Cc1c(Oc2ccc(F)c(-c3ncc(C(C)c4cccc([C@@H]5C[C@@H]5C(=O)O)c4F)[nH]3)c2)c(F)cc2[nH]ccc12` (single isomer, unassigned) [Example 138A, cis-2-(2-fluoro-3-(1-(2-(2-fluoro-5-((6-fluoro-4-methyl-1H-indol-5-yl)oxy)phenyl)-1H-imidazol-5-yl)ethyl)phenyl)cyclopropane-1-carboxylic acid], the “DSLS NBD1/3D Human Stability delta-T” value is given as “C (C: ≤5° C.)”.

For the compound `O=C(O)CCc1cccc(Cc2csc(-c3cccc(Oc4ccc5[nH]ccc5c4CO)c3)n2)c1` [Example 99, 3-(3-((2-(3-((4-(Hydroxymethyl)-1H-indol-5-yl)oxy)phenyl)thiazol-4-yl)methyl)phenyl)propanoic acid], the “DSLS NBD1/3D Human Stability delta-T” value is on record as “B (B: 5-10° C.)”.

On to `CC(C)S(=O)(=O)c1c(Oc2ccc(F)c(-c3nc(C(C)(O)c4cccc(CCC(=O)O)c4)c[nH]3)c2)c(F)cc2[nH]ccc12` (stereo not drawn) [Example 29, 3-(3-(1-(2-(2-fluoro-5-((6-fluoro-4-(isopropylsulfonyl)-1H-indol-5-yl)oxy)phenyl)-1H-imidazol-4-yl)-1-hydroxyethyl)phenyl)propanoic acid], for which the “DSLS NBD1/3D Human Stability delta-T” value is reported as “B (B: 5-10° C.)”.

Regarding `Cc1c(Oc2ccc(F)c(-c3ncc(C(C)(O)c4cccc(CCC(=O)O)c4)[nH]3)c2)c(F)cc2[nH]ccc12` (single isomer, unassigned) [Example 215A, 3-(3-(1-(2-(2-Fluoro-5-((6-fluoro-4-methyl-1H-indol-5-yl)oxy)phenyl)-1H-imidazol-5-yl)-1-hydroxyethyl)phenyl)propanoic acid], the “DSLS NBD1/3D Human Stability delta-T” value is “B (B: 5-10° C.)”.

With `CC(O)(c1cccc(CCC(=O)O)c1)c1cnc(-c2cc(Oc3c(F)cc4[nH]ccc4c3F)ccc2F)[nH]1` (stereo not drawn) [Example 187, 3-(3-(1-(2-(5-((4,6-difluoro-1H-indol-5-yl)oxy)-2-fluorophenyl)-1H-imidazol-5-yl)-1-hydroxyethyl)phenyl) propanoic acid], the “DSLS NBD1/3D Human Stability delta-T” value was “A (A: T ≥ 10° C.)”.

In the case of `CC(c1cccc(CCC(=O)O)c1)n1ccc(-c2cc(Oc3c(F)cc4[nH]ccc4c3S(C)(=O)=O)ccc2F)n1` (stereo not drawn) [Example 38, 3-(3-(1-(3-(2-Fluoro-5-((6-fluoro-4-(methylsulfonyl)-1H-indol-5-yl)oxy)phenyl)-1H-pyrazol-1-yl)ethyl)phenyl)propanoic acid], the “DSLS NBD1/3D Human Stability delta-T” value is recorded as “B (B: 5-10° C.)”.

For the compound `O=C(O)CCc1cccc(C2(c3cnc(-c4cc(Oc5ccc6scnc6c5)ccc4F)[nH]3)CCOCC2)c1` [Example 166, 3-(3-(4-(2-(5-(Benzo[d]thiazol-5-yloxy)-2-fluorophenyl)-1H-imidazol-5-yl)tetrahydro-2H-pyran-4-yl)phenyl)propanoic acid], the “DSLS NBD1/3D Human Stability delta-T” value was “C (C: ≤5° C.)”.

Regarding `Cc1c(Oc2ccc(F)c(-c3ncc(Cc4cccc(CCC(=O)O)n4)[nH]3)c2)c(F)cc2[nH]ccc12` [Example 90, 3-(6-((2-(2-fluoro-5-((6-fluoro-4-methyl-1H-indol-5-yl)oxy)phenyl)-1H-imidazol-5-yl)methyl)pyridin-2-yl)propanoic acid], the “DSLS NBD1/3D Human Stability delta-T” value is “B (B: 5-10° C.)”.

In the case of `O=C(O)CCc1cccc(C2(c3cnc(-c4cc(Oc5nc6cc[nH]c6cc5F)ccc4F)[nH]3)CC(F)(F)C2)c1` [Example 165, 3-(3-(3,3-difluoro-1-(2-(2-fluoro-5-((6-fluoro-1H-pyrrolo[3,2-b]pyridin-5-yl)oxy)phenyl)-1H-imidazol-5-yl)cyclobutyl)phenyl)propanoic acid], the “DSLS NBD1/3D Human Stability delta-T” value is recorded as “B (B: 5-10° C.)”.

For `Cc1c(Oc2cccc(-c3ccc(Cc4cccc(CCC(=O)O)c4)[nH]3)c2)c(F)cc2[nH]ccc12` [Example 21, 3-(3-((5-(3-((6-Fluoro-4-methyl-1H-indol-5-yl)oxy)phenyl)-1H-pyrrol-2-yl)methyl)phenyl)propanoic acid], the “DSLS NBD1/3D Human Stability delta-T” value was “C (C: ≤5° C.)”.

Consider `CC(=O)NS(=O)(=O)Cc1cccc(C(C)(O)c2cnc(-c3cccc(Oc4c(F)cc5[nH]ccc5c4F)c3)[nH]2)c1` (stereo not drawn) [Example 212, N-((3-(1-(2-(3-((4,6-Difluoro-1H-indol-5-yl)oxy)phenyl)-1H-imidazol-5-yl)-1-hydroxyethyl)benzyl)sulfonyl)acetamide], for which the “DSLS NBD1/3D Human Stability delta-T” value was “B (B: 5-10° C.)”.

With `Cc1c(Oc2ccc(F)c(-c3nc(C4(c5cccc(CCC(=O)O)c5)CCOC(C)C4)c[nH]3)c2)c(F)cc2[nH]ccc12` (single isomer, unassigned) [Example 154, 3-(3-(4-(2-(2-fluoro-5-((6-fluoro-4-methyl-1H-indol-5-yl)oxy)phenyl)-1H-imidazol-4-yl)-2-methyltetrahydro-2H-pyran-4-yl)phenyl)propanoic acid], the “DSLS NBD1/3D Human Stability delta-T” value is recorded as “A (A: T ≥ 10° C.)”.

`O=C(O)CCc1cccc(C2(c3csc(-c4cccc(Oc5c(F)cc6[nH]ccc6c5F)c4)n3)CCOCC2)c1` [Example 95, 3-(3-(4-(2-(3-((4,6-difluoro-1H-indol-5-yl)oxy)phenyl)thiazol-4-yl)tetrahydro-2H-pyran-4-yl)phenyl)propanoic acid]: the “DSLS NBD1/3D Human Stability delta-T” value is on record as “B (B: 5-10° C.)”.

As for `O=C(O)CCCCc1cccc(Cc2nnc(-c3cccc(Oc4cc5cc[nH]c5cn4)c3)[nH]2)c1` [Example 257, 5-(3-((5-(3-((1H-pyrrolo[2,3-c]pyridin-5-yl)oxy)phenyl)-4H-1,2,4-triazol-3-yl)methyl)phenyl)pentanoic acid], the “DSLS NBD1/3D Human Stability delta-T” value is on record as “C (C: ≤5° C.)”.

With `CC(C#N)(c1cccc(CCC(=O)O)c1)c1cnc(-c2cc(Oc3c(F)cc4[nH]cnc4c3F)ccc2F)[nH]1` (stereo not drawn) [Example 62, 3-(3-(1-cyano-1-(2-(5-((4,6-difluoro-1H-benzo[d]imidazol-5-yl)oxy)-2-fluorophenyl)-1H-imidazol-5-yl)ethyl)phenyl)propanoic acid], the “DSLS NBD1/3D Human Stability delta-T” value is “B (B: 5-10° C.)”.
